# Test results from ChEMBL document CHEMBL3880389, “Heterocyclic compounds as inhibitors of the sodium iodide symporter” (2014).
# Target: T1, Sodium/iodide cotransporter (Rattus norvegicus, UniProt Q63008)
# T1 sequence (Q63008 whole entry): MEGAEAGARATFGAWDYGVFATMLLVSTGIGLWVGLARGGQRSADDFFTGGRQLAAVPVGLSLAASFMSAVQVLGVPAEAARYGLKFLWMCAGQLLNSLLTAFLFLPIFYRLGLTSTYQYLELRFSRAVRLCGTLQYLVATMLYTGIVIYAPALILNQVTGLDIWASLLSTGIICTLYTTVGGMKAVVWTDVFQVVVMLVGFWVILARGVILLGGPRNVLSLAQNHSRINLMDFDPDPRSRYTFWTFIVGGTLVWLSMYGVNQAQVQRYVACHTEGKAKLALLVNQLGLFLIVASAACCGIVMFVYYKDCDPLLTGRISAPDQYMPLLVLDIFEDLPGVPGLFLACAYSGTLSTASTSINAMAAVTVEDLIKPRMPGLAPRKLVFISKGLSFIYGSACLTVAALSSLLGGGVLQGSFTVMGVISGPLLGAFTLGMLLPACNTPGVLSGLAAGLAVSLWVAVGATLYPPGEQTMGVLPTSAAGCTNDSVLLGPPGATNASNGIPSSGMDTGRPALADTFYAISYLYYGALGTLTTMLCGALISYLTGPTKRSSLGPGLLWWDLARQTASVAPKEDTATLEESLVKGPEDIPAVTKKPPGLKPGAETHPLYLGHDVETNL
# Test: Inhibition of sodium iodide symporter in rat FRTL5 cells assessed as decrease in [125I]-sodium iodide uptake after 60 mins by scintillation counting method
# Format: cell-based, FRTL-5
row,Compound,IC50 [µM]
1,O=[N+]([O-])c1cccc(C2NCCc3c2[nH]c2ccccc32)c1 (configuration not stated),0.3
2,Brc1cccc(C2NCCc3c2[nH]c2ccccc32)c1 (configuration not stated),0.4

# Target: T1, Sodium/iodide cotransporter
# Test: Inhibition of sodium iodide symporter in rat FRTL5 cells assessed as decrease in sodium iodide uptake after 60 mins by scintillation counting method
# Format: cell-based, FRTL-5
row,Compound,IC50 [µM]
1,F[B-](F)(F)F,0.75
2,O=[N+]([O-])O,250
3,F[P-](F)(F)(F)(F)F.[Na+],0.009
4,[O-][Cl+3]([O-])([O-])O [PERCHLORATE],0.14
5,N#CS [THIOCYANIC ACID],14
